Test [1] addresses T1, c-Met (cytoplasmic domain) (Homo sapiens, UniProt P08581).
T1 construct: 10 ng/mL c-Met (cytoplasmic domain, Invitrogen Corporation #PV3143); purchased Invitrogen Corporation PV3143
The test can be described thus: c-Met Kinase Assay (same methods as for ALK, with modifications). The format is biochemical. The following applies: 1 μM ATP (Km level), 10 ng/mL c-Met; read-out: cMet Activity (c-Met kinase inhibition, IC50 class). A digest of the protocol:
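Steps: coat wells with PLC-γ (10 μg/mL, Tris-buffered saline); add 10 ng/mL c-Met cytoplasmic domain to initiate; incubate 15 min, 37° C; detect phosphoproduct via Eu-N1 PT66 antibody.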

For test [2], the target named is T2, baculovirus-expressed ALK (Homo sapiens, UniProt Q9UM73).
T2 construct: host or cells: baculovirus expression system
T2 sequence (Q9UM73 19-1620): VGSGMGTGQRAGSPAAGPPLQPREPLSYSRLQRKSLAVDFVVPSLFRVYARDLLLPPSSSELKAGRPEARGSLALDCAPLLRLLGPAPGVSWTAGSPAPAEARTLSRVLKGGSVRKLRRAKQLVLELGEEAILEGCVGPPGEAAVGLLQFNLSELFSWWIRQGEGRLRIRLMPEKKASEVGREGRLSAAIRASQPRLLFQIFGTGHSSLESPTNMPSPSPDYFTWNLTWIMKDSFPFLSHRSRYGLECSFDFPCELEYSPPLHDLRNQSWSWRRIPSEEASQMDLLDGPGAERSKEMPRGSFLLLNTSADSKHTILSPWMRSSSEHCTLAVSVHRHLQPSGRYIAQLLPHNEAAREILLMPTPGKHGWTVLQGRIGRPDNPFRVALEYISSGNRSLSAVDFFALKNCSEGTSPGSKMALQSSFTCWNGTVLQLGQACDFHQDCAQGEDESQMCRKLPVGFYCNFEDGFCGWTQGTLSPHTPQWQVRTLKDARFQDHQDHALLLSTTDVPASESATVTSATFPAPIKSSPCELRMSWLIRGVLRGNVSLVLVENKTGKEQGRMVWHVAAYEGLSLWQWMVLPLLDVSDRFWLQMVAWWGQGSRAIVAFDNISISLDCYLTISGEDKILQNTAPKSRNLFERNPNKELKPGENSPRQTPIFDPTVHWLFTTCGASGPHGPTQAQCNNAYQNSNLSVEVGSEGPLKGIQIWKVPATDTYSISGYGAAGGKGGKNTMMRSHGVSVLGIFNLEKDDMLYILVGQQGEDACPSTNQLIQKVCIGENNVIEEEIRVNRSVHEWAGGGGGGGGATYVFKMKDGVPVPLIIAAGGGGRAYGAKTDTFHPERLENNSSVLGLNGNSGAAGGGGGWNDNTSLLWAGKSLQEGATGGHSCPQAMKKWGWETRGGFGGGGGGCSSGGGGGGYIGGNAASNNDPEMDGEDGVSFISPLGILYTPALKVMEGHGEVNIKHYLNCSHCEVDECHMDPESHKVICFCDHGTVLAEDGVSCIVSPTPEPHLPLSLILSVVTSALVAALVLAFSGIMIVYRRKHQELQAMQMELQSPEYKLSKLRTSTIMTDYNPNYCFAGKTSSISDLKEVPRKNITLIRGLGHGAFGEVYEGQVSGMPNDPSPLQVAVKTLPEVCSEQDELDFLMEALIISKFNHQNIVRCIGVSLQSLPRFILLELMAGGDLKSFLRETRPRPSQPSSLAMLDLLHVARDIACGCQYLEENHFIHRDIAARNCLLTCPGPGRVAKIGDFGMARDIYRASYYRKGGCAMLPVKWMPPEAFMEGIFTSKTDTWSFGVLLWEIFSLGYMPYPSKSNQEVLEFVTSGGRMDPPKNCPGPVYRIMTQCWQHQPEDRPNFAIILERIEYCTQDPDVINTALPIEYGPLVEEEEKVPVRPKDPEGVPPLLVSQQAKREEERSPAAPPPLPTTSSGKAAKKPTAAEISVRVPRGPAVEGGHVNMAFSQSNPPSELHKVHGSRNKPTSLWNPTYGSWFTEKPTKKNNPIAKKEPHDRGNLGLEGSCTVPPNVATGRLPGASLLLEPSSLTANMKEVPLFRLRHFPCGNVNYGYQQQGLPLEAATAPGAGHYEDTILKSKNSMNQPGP
The test can be described thus: ALK Kinase Assay (ELISA-type, time-resolved fluorescence). Type of test: biochemical. The note with it: 1 μM ATP (Km level), 30 ng/ml ALK, 37° C., 15 minutes; read-out: ALK Activity (ALK kinase inhibition, IC50 class). The gist of the method: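 Wells were coated with phospholipase C-γ at 10 μg/mL in Tris-buffered saline. Adding 30 ng/ml enzyme started the reaction, which ran at 37° C for 15 minutes before Eu-N1 PT66 antibody detection. Percent inhibition versus log10 concentration gave IC50 by variable-slope fit.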
A general note: In an ELISA, binding on a coated surface is turned into a signal by an enzyme label.

For 24 molecules, IC50 results are on record in patent US8148391B2 (Cephalon, Inc., priority 2006, dated 2012).

Structures are written as SMILES.

T1 sequence (P08581 956-1390 limits assumed): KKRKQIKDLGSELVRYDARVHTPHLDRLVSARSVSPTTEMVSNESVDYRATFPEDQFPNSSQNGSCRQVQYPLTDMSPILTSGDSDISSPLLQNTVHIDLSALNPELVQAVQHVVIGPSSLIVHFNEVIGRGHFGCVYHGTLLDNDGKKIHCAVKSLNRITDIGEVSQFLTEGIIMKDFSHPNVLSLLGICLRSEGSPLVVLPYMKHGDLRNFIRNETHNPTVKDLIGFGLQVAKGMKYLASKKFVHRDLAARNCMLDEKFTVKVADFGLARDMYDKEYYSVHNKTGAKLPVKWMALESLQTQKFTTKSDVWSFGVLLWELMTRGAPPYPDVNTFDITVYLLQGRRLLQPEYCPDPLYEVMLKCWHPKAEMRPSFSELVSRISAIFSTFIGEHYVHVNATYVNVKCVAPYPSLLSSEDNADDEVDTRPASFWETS

The term IC50 denotes the point on the concentration scale where inhibition reaches its midpoint. For the molecule `CCN1C(=O)CCC(C)(C)c2ccc(Nc3ncc(Cl)c(Nc4ccccc4S(C)(=O)=O)n3)cc21` [Example 1248, 8-[5-Chloro-4-(2-methanesulfonyl-phenylamino)-pyrimidin-2-ylamino]-1-ethyl-5,5-dimethyl-1,3,4,5-tetrahydro-1-benzazepin-2-one], the concentration for half-maximal inhibition (IC50) in test [1] and in test [2] was less than 100 nM each time.

Regarding `COCCN1CCc2ccc(Nc3ncc(Cl)c(Nc4ccccc4S(C)(=O)=O)n3)cc2CC1` [Example 1249, 5-Chloro-N(4)-(2-methanesulfonyl-phenyl)-N(2)-[3-(2-methoxy-ethyl)-2,3,4,5-tetrahydro-1H-3-benzazepin-7-yl]-pyrimidine-2,4-diamine], the figures for the IC50 in test [1] and in test [2] were 100 to 1000 nM and less than 100 nM, respectively.

As for `CN1C(=O)CCC(C)(C)c2cc(Nc3ncc(Cl)c(Nc4ccccc4S(C)(=O)=O)n3)ccc21` [Example 1250, 7-[5-Chloro-4-(2-methanesulfonyl-phenylamino)-pyrimidin-2-ylamino]-1,5,5-trimethyl-1,3,4,5-tetrahydro-1-benzazepin-2-one], the 50% inhibitory concentration (IC50) was 100 to 1000 nM in test [1] and less than 100 nM in test [2].

Regarding `CC(C)S(=O)(=O)c1cccc(F)c1Nc1nc(Nc2ccc3c(c2)NC(=O)CCC3(C)C)ncc1Cl` [Example 1251, 8-{5-Chloro-4-[2-fluoro-6-(propane-2-sulfonyl)-phenylamino]-2-ylamino}-5,5-dimethyl-1,3,4,5-tetrahydro-1-benzazepin-2-one], the IC50 in test [1] was in the range of 1000 to 10000 nM; in test [2] it was 100 to 1000 nM.

`CCN1C(=O)CCC(C)(C)c2ccc(Nc3ncc(Cl)c(Nc4c(F)cccc4S(=O)(=O)C(C)C)n3)cc21` [Example 1252, 8-{5-Chloro-4-[2-fluoro-6-(propane-2-sulfonyl)-phenylamino]-pyrimidin-2-ylamino}-1-ethyl-5,5-dimethyl-1,3,4,5-tetrahydro-1-benzazepin-2-one]: the half-maximal inhibitory concentration (IC50) in test [1] was 1000 to 10000 nM; in test [2], less than 100 nM.

As for `COCCN1CCc2ccc(Nc3ncc(Cl)c(Nc4c(F)cccc4S(=O)(=O)C(C)C)n3)cc2CC1` [Example 1253, 5-Chloro-N(4)-[2-fluoro-6-(propane-2-sulfonyl)-phenyl]-N(2)-[3-(2-methoxy-ethyl)-2,3,4,5-tetrahydro-1H-3-benzazepin-7-yl]-pyrimidine-2,4-diamine], the IC50 in test [1] was 1000 to 10000 nM; in test [2], less than 100 nM.

`CC(C)S(=O)(=O)c1cccc(F)c1Nc1nc(Nc2ccc3c(c2)C(C)(C)CCC(=O)N3)ncc1Cl` [Example 1254, 7-{5-Chloro-4-[2-fluoro-6-(propane-2-sulfonyl)-phenylamino]-pyrimidin-2-ylamino}-5,5-dimethyl-1,3,4,5-tetrahydro-1-benzazepin-2-one]: the figures for the IC50 in test [1] and in test [2] were 1000 to 10000 nM and less than 100 nM, respectively.

Turning to `CC(C)S(=O)(=O)c1cccc(F)c1Nc1nc(Nc2ccc3c(c2)NC(=O)CCC3)ncc1Cl` [Example 1255, 8-{5-Chloro-4-[2-fluoro-6-(propane-2-sulfonyl)-phenylamino]-pyrimidin-2-ylamino}-1,3,4,5-tetrahydro-1-benzazepin-2-one], the 50% inhibitory concentration (IC50) was 1000 to 10000 nM in test [1] and 100 to 1000 nM in test [2].

Consider `NC(=O)c1cccc(F)c1Nc1nc(Nc2ccc3c(c2)NC(=O)CCC3)ncc1Cl` [Example 1256, 2-[5-Chloro-2-(2-oxo-2,3,4,5-tetrahydro-1H-1-benzazepin-8-ylamino)-pyrimidin-4-ylamino]-3-fluoro-benzamide], for which the 50% inhibitory concentration (IC50) fell in the range of 1000 to 10000 nM in test [1] and 100 to 1000 nM in test [2].

`COCCN1CCc2ccc(Nc3ncc(Cl)c(Nc4c(F)cccc4C(N)=O)n3)cc2CC1` [Example 1257, 2-{5-Chloro-2-[3-(2-methoxy-ethyl)-2,3,4,5-tetrahydro-1H-3-benzazepin-7-ylamino]-pyrimidin-4-ylamino}-3-fluoro-benzamide]: the IC50 in test [1] is 100 to 1000 nM; in test [2] it was less than 100 nM.

Take `CCN1C(=O)CCC(C)(C)c2ccc(Nc3ncc(Cl)c(Nc4c(F)cccc4S(C)(=O)=O)n3)cc21` [Example 1259, 8-[5-Chloro-4-(2-fluoro-6-methanesulfonyl-phenylamino)-pyrimidin-2-ylamino]-1-ethyl-5,5-dimethyl-1,3,4,5-tetrahydro-1-benzazepin-2-one]: the half-maximal inhibitory concentration (IC50) in test [1] lay within 1000 to 10000 nM; in test [2], 100 to 1000 nM.

With `CC1(C)CCC(=O)Nc2ccc(Nc3ncc(Cl)c(Nc4c(F)cccc4S(C)(=O)=O)n3)cc21` [Example 1260, 7-[5-Chloro-4-(2-fluoro-6-methanesulfonyl-phenylamino)-pyrimidin-2-ylamino]-5,5-dimethyl-1,3,4,5-tetrahydro-1-benzazepin-2-one], the IC50 in test [1] was 1000 to 10000 nM; in test [2], less than 100 nM.

On to `CS(=O)(=O)c1cccc(F)c1Nc1nc(Nc2ccc3c(c2)NC(=O)CCC3)ncc1Cl` [Example 1261, 8-[5-Chloro-4-(2-fluoro-6-methanesulfonyl-phenylamino)-pyrimidin-2-ylamino]-1,3,4,5-tetrahydro-1-benzazepin-2-one], for which the IC50 was more than 10000 nM in test [1] and 1000 to 10000 nM in test [2].

In the case of `CN(CCC#N)c1cccc(F)c1Nc1nc(Nc2ccc3c(c2)NC(=O)CCC3(C)C)ncc1Cl` [Example 1263, 3-({2-[5-Chloro-2-(5,5-dimethyl-2-oxo-2,3,4,5-tetrahydro-1H-1-benzazepin-8-ylamino)-pyrimidin-4-ylamino]-3-fluoro-phenyl}-methyl-amino)-propionitrile], the half-inhibitory concentration (IC50) was 1000 to 10000 nM in test [1] and 100 to 1000 nM in test [2].

In the case of `CCN1C(=O)CCC(C)(C)c2ccc(Nc3ncc(Cl)c(Nc4c(F)cccc4N(C)CCC#N)n3)cc21` [Example 1264, 3-({2-[5-Chloro-2-(1-ethyl-5,5-dimethyl-2-oxo-2,3,4,5-tetrahydro-1H-1-benzazepin-8-ylamino)-pyrimidin-4-ylamino]-3-fluoro-phenyl}-methyl-amino)-propionitrile], the IC50 in test [1] fell in the range of 1000 to 10000 nM; in test [2], 100 to 1000 nM.

In the case of `CN(CCC#N)c1cccc(F)c1Nc1nc(Nc2ccc3c(c2)C(C)(C)CCC(=O)N3)ncc1Cl` [Example 1266, 3-({2-[5-Chloro-2-(5,5-dimethyl-2-oxo-2,3,4,5-tetrahydro-1H-1-benzazepin-7-ylamino)-pyrimidin-4-ylamino]-3-fluoro-phenyl}-methyl-amino)-propionitrile], the IC50 in test [1] was 1000 to 10000 nM; in test [2], less than 100 nM.

`CN(CCC#N)c1cccc(F)c1Nc1nc(Nc2ccc3c(c2)C(C)(C)CCC(=O)N3)ncc1Cl` [Example 1267, 3-({2-[5-Chloro-2-(5,5-dimethyl-2-oxo-2,3,4,5-tetrahydro-1H-1-benzazepin-7-ylamino)-pyrimidin-4-ylamino]-3-fluoro-phenyl}-methyl-amino)-propionitrile]: the 50% inhibitory concentration (IC50) in test [1] fell in the range of 1000 to 10000 nM; in test [2] it was 100 to 1000 nM.

In the case of `CNC(=O)c1cccc(F)c1Nc1nc(Nc2ccc3c(c2)-n2cccc2C(=O)CO3)ncc1Cl` [Example 1268, 2-[5-Chloro-2-(4-oxo-4,5-dihydro-6-oxa-10b-aza-benz[e]azulen-9-ylamino)-pyrimidin-4-ylamino]-3-fluoro-N-methyl-benzamide], the 50% inhibitory concentration (IC50) is less than 100 nM in test [1] and 100 to 1000 nM in test [2].

For `CNC(=O)c1cccc(F)c1Nc1nc(Nc2ccc3c(c2)-n2cccc2C=CO3)ncc1Cl` [Example 1269, 2-[5-Chloro-2-(6-oxa-10b-aza-benz[e]azulen-9-ylamino)-pyrimidin-4-ylamino]-3-fluoro-N-methyl-benzamide], the concentration for half-maximal inhibition (IC50) is less than 100 nM in test [1] and 100 to 1000 nM in test [2].

With `CNC(=O)c1cccc(F)c1Nc1nc(Nc2ccc3c(c2)-n2ccnc2CCC3(C)C)ncc1Cl` [Example 1270, 2-[5-Chloro-2-(6,6-dimethyl-5,6-dihydro-4H-3,10b-diaza-benz[e]azulen-9-ylamino)-pyrimidin-4-ylamino]-3-fluoro-N-methyl-benzamide], the IC50 in test [1] is less than 100 nM; in test [2], 100 to 1000 nM.

With `O=C1CCCc2ccc(Nc3ncc(Cl)c(Nc4c(F)cccc4OC4CCOC4)n3)cc2N1` (stereo not drawn) [Example 1273, 8-{5-Chloro-4-[2-fluoro-6-(tetrahydro-furan-3-yloxy)-phenylamino]-pyrimidin-2-ylamino}-1,3,4,5-tetrahydro-1-benzazepin-2-one], the IC50 in test [1] and in test [2] was 100 to 1000 nM each time.

For `COCCN1CCc2ccc(Nc3ncc(Cl)c(Nc4c(F)cccc4OC4CCOC4)n3)cc2CC1` (stereo not drawn) [Example 1274, 5-Chloro-N(4)-[2-fluoro-6-(tetrahydro-furan-3-yloxy)-phenyl]-N(2)-[3-(2-methoxy-ethyl)-2,3,4,5-tetrahydro-1H-3-benzazepin-7-yl]-pyrimidine-2,4-diamine], the half-maximal inhibitory concentration (IC50) in test [1] and in test [2] was 100 to 1000 nM each time.

`COCCN1CCc2ccc(Nc3ncc(Cl)c(Nc4c(F)cccc4OCC4CCOC4)n3)cc2CC1` (stereo not drawn) [Example 1275, 5-Chloro-N(4)-[2-fluoro-6-(tetrahydro-furan-3-ylmethoxy)-phenyl]-N(2)-[3-(2-methoxy-ethyl)-2,3,4,5-tetrahydro-1H-3-benzazepin-7-yl]-pyrimidine-2,4-diamine]: the IC50 in test [1] and in test [2] was 1000 to 10000 nM throughout.

Turning to `O=C1CCCc2ccc(Nc3ncc(Cl)c(Nc4c(F)cccc4OCC4CCOC4)n3)cc2N1` (stereo not drawn) [Example 1276, 8-{5-Chloro-4-[2-fluoro-6-(tetrahydro-furan-3-ylmethoxy)-phenylamino]-pyrimidin-2-ylamino}-1,3,4,5-tetrahydro-1-benzazepin-2-one], the IC50 in test [1] and in test [2] was 100 to 1000 nM each time.
